Source: the supplement of paper PMC9938120

Columns and labels:
Test in all cases: drug sensitivity score (DSS3, normalised partial AUC of % inhibition dose-response) (DSS (score)); higher = more sensitive (stronger inhibition of viability); extreme values may be limits of the assay
[1] = tested on: FMOC17 (patient-derived low-grade serous ovarian cancer cells); details: 72 h; library: FO5A; assay format: 2D, 384-well, CellTiter-Glo
Method in brief: (§1)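 Cells were dispensed onto 384-well flat clear-bottom plates already holding compounds at five concentrations over a 10,000-fold range, using patient-derived ovarian cancer cells at passage under 10. Incubation lasted 72 h at 37 °C in 5% CO2, after which CellTiter-Glo viability data were processed in Breeze. Higher drug sensitivity scores, each a partial area under the percent-inhibition dose-response curve divided by the log of the upper asymptote, mean more sensitive cells.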

[2] = tested on: FMOC11 (patient-derived high-grade serous ovarian cancer cells); details: 72 h; library: FO5A; assay format: 2D, 384-well, CellTiter-Glo
Method in brief: as §1

[3] = tested on: FMOC22 (patient-derived mucinous ovarian cancer cells); details: 72 h; library: FO5A; assay format: 2D, 384-well, CellTiter-Glo
Method in brief: as §1

[4] = tested on: FMOC24 (patient-derived high-grade serous ovarian cancer cells); details: 72 h; library: FO5A; assay format: 2D, 384-well, CellTiter-Glo
Method in brief: as §1

[5] = tested on: FMOC28 (patient-derived low-grade serous ovarian cancer cells); details: 72 h; library: FO5A; assay format: 2D, 384-well, CellTiter-Glo
Method in brief: as §1

[6] = tested on: FMOC02_2 (patient-derived low-grade serous ovarian cancer cells); details: 72 h; library: FO5A; assay format: 2D, 384-well, CellTiter-Glo
Method in brief: as §1

[7] = tested on: FMOC02_3 (patient-derived low-grade serous ovarian cancer cells); details: 72 h; library: FO5A; assay format: 2D, 384-well, CellTiter-Glo
Method in brief: as §1

[8] = tested on: FMOC04 (patient-derived high-grade serous ovarian cancer cells); details: 72 h; library: FO5A; assay format: 2D, 384-well, CellTiter-Glo
Method in brief: as §1

[9] = tested on: FMOC25_2 (patient-derived low-grade serous ovarian cancer cells); details: 72 h; library: FO5A; assay format: 2D, 384-well, CellTiter-Glo
Method in brief: as §1

[10] = tested on: FMOC25_1 (patient-derived low-grade serous ovarian cancer cells); details: 72 h; library: FO4B; assay format: 2D, 384-well, CellTiter-Glo
Method in brief: as §1

[11] = tested on: FMOC09 (patient-derived high-grade serous ovarian cancer cells); details: 72 h; library: FO5A; assay format: 2D, 384-well, CellTiter-Glo
Method in brief: as §1

[12] = tested on: FMOC27 (patient-derived low-grade serous ovarian cancer cells); details: 72 h; library: FO5A; assay format: 2D, 384-well, CellTiter-Glo
Method in brief: as §1

[13] = tested on: FMOC06 (patient-derived mucinous ovarian cancer cells); details: 72 h; library: FO5A; assay format: 2D, 384-well, CellTiter-Glo
Method in brief: as §1

[14] = tested on: FMOC02_1 (patient-derived low-grade serous ovarian cancer cells); details: 72 h; library: FO5A; assay format: 2D, 384-well, CellTiter-Glo
Method in brief: as §1

[15] = tested on: FMOC03 (patient-derived mucinous ovarian cancer cells); details: 72 h; library: FO5A; assay format: 2D, 384-well, CellTiter-Glo
Method in brief: as §1

[16] = tested on: FMOC14 (patient-derived high-grade serous ovarian cancer cells); details: 72 h; library: FO5A; assay format: 2D, 384-well, CellTiter-Glo
Method in brief: as §1

Structure (SMILES)	drug sensitivity score [1]	drug sensitivity score [2]	drug sensitivity score [3]	drug sensitivity score [4]	drug sensitivity score [5]	drug sensitivity score [6]	drug sensitivity score [7]	drug sensitivity score [8]	drug sensitivity score [9]	drug sensitivity score [10]	drug sensitivity score [11]	drug sensitivity score [12]	drug sensitivity score [13]	drug sensitivity score [14]	drug sensitivity score [15]	drug sensitivity score [16]
NC(=S)N/N=C/c1ncccc1N [Triapine]	2.2	1.7	2.4	1.15	5.1	3.5	1.7	0	6	3.2	0.9	2.3	1.8	4.2	2.4	0
Cc1ccc(NC(=O)c2ccc(CN3CCN(C)CC3)cc2)cc1Nc1nc(-c2cccnc2)cs1 [Masitinib]	4.2	3.9	2.6	5.6	1.2	2.4	4.8	0.9	3.9	2.2	2.7	0	4.4	2.8	3.6	5.4
O=C(O)c1ccc(-c2c[nH]c3ncc(-c4ccccc4)cc23)cc1C1CCCC1	0	0	0.8	0.65	2.9	0	0	0	0.4	0	0	0	0	0	0.5	0
N#CC[C@H](C1CCCC1)n1cc(-c2ncnc3[nH]ccc23)cn1 [Ruxolitinib]	0	0	0	1.6	0	0.3	0	0	0	0	0	0	0	0.5	0	0
CCCOc1ccn2c(C(C)=O)cc(-c3ccccc3S(C)(=O)=O)c2c1 [GSK2801]	0	0	0	0	4.9	0.1	0	0	1.5	0	0	0	0	0	0	0
C[C@@H]1CN(CC(=O)Nc2ccc3c(c2)Cc2cccc(-c4cc(=O)cc(N5CCOCC5)o4)c2S3)C[C@H](C)O1	0.2	1	0.8	5.75	0	0.5	0.2	1.9	1	3.4	0	0	0.6	0.5	0.9	0.3
CCn1c(-c2nonc2N)nc2cnc(Oc3cccc(NC(=O)c4ccc(OCCN5CCOCC5)cc4)c3)cc21	2	3.7	1.7	2.3	0.4	1.6	6.3	0.6	3.8	0	2.3	2.9	1.3	4.8	0.4	2.2
Cn1cc(C2=C(c3cn(C4CCN(Cc5ccccn5)CC4)c4ccccc34)C(=O)NC2=O)c2ccccc21 [Enzastaurin]	5.1	0	0.3	3.95	0	4.4	5.8	0	0	0	1.5	0.3	0	4.8	0.5	5
COc1cc2/c(=N/c3ccc(Br)cc3F)nc[nH]c2cc1OCC1CCN(C)CC1 [Vandetanib]	6.2	3.1	0	1.7	2.1	6.3	5.1	0.55	4.1	1.4	3.1	4.8	0.7	5.6	2.7	0.1
C[C@@H]1C[C@H]2[C@@H]3CCC4=CC(=O)C=C[C@]4(C)[C@@]3(F)[C@@H](O)C[C@]2(C)[C@@]1(O)C(=O)CO [Dexamethasone]	1.3	0	0	0	0	0	0	0	0	0	0	0	0	0	0	0
C[C@]1(c2nc3c(C(N)=O)cccc3[nH]2)CCCN1 [Veliparib]	0	0	0	1.3	0	1.6	3.2	0	1.6	0.1	0	1.4	0	0.4	0	0
Cc1ccc(Nc2nccc(N(C)c3ccc4c(C)n(C)nc4c3)n2)cc1S(N)(=O)=O [Pazopanib]	0	0	0	3.8	0	0.4	1.5	0	3	1.1	0	0.6	0	1.3	0	0
